Legend:
HCT-116 [1] = test: In vitro cytotoxic activity against human cancer cell line HCT116 by using MTT assay; assay type: functional, cell-based
DNA topoisomerase 2 = biological target: T1, DNA topoisomerase 2 (Drosophila melanogaster, UniProt P15348); test: In vitro inhibitory activity against topoisomerase II (Topo II) by using decatenation assay
T1 sequence (P15348 whole entry): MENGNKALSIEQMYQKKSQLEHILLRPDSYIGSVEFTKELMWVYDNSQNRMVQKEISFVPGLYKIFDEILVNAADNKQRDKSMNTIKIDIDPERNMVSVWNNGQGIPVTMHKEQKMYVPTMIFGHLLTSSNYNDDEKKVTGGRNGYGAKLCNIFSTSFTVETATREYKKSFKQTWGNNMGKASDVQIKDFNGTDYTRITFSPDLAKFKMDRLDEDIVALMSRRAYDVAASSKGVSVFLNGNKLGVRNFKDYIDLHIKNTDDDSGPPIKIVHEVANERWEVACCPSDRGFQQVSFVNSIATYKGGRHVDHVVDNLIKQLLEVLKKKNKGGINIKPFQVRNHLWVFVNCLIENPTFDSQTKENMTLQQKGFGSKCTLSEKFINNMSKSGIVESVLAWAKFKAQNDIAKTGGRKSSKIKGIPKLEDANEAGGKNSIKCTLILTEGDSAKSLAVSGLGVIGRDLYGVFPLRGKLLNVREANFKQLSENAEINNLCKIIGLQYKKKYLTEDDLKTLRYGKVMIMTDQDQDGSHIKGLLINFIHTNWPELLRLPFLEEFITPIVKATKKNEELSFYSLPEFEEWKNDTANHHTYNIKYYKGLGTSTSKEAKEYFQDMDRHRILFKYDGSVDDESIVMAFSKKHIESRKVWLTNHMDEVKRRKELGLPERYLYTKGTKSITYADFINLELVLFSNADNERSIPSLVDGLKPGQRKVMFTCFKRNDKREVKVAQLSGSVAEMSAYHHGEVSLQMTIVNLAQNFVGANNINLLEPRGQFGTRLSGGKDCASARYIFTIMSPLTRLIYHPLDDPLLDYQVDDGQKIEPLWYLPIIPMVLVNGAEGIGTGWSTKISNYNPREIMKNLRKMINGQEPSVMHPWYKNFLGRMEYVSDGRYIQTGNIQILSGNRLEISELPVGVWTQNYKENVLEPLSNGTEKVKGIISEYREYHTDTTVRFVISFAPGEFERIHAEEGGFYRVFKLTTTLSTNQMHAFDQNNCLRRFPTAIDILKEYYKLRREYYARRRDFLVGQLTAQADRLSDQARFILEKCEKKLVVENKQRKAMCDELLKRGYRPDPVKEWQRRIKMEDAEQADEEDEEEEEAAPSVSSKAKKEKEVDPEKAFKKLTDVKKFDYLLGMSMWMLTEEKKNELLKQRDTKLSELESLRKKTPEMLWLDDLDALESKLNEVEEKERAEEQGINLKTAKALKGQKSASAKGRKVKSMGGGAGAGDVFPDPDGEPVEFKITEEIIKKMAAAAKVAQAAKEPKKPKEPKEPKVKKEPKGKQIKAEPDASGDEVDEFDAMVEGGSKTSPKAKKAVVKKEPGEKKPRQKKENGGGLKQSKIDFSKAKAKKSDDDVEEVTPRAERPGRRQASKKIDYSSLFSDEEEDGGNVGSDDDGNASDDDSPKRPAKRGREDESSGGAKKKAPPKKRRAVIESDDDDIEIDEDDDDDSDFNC

P388 = test: In vitro cytotoxic activity against murine cancer cell line P388 by using MTT assay; assay type: functional, cell-based; details: Mus musculus
DNA topoisomerase 1 = biological target: T2, DNA topoisomerase 1 (Mus musculus, UniProt Q04750); test: In vitro inhibitory activity against topoisomerase I (Topo I) by using relaxation assay
T2 sequence (Q04750 whole entry): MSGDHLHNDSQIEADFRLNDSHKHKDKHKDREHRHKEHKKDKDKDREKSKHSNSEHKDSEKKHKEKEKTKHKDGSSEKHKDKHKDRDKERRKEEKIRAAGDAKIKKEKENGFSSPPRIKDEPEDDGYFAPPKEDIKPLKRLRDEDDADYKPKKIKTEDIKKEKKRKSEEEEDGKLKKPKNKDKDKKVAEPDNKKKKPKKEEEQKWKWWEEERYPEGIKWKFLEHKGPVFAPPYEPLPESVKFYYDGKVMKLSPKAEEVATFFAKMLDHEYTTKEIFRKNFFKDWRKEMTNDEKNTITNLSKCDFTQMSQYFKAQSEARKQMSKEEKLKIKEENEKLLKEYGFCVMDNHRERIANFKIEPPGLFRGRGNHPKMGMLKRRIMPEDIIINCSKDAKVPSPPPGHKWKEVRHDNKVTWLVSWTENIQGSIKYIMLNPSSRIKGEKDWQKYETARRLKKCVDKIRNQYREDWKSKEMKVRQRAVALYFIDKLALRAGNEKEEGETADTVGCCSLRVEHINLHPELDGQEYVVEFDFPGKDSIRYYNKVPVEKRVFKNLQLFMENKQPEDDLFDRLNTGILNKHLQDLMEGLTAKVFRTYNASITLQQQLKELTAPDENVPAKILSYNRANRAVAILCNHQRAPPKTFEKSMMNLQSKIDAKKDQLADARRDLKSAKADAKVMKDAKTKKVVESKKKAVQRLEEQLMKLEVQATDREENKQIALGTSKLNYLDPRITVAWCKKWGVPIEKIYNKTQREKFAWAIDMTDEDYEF

K562 = test: In vitro cytotoxic activity against human cancer cell line K562 by using MTT assay; assay type: functional, cell-based
HCT-116 [2] = test: In vitro cytotoxic activity against HCT116 human cancer cell line at 40 uM; IA means Inactive; assay type: functional, cell-based
Mus musculus [3] = test: In vivo antitumor activity against Colon 26 murine tumor model at a dose of 10 mg/kg administered intravenously; assay type: functional; details: route intravenous
Mus musculus [4] = test: In vivo antitumor activity against Colon 26 murine tumor model at a dose of 20 mg/kg administered intravenously; assay type: functional; details: route intravenous

SMILES	IC50 (HCT-116 [1]) [nM]	IC50 (DNA topoisomerase 2) [µM]	IC50 (P388) [nM]	IC50 (DNA topoisomerase 1) [µM]	IC50 (K562) [nM]	IC50 (HCT-116 [2])	Activity (Mus musculus [3]) [%]	Activity (Mus musculus [4]) [%]
CNC(=O)[C@]12Oc3cc(C)cc(O)c3C(=O)C1=CC=C[C@H]2O	1130	132	240	> 300	2260			
Cc1cc(O)c2c(=O)c3ccccc3oc2c1						Not Active		
Cc1cc(O)c2c(c1)O[C@@]1(C(N)=O)C(=CC=C[C@H]1O)C2=O	330	29	52	63	590		42	
Cc1cc(O)c2c(c1)O[C@@]13C(=O)N(C)[C@@H](CC=C1C2=O)[C@H]3O	19600	> 300		> 300	6310			
COC(=O)[C@]12Oc3cc(C)cc(O)c3C(=O)C1=CC=C[C@H]2O	140	2.2	24	172	320			24
Cc1cc(O)c2c(c1)O[C@@]1(C(=O)N3CCCC3)C(=CC=C[C@H]1O)C2=O	1640		560		1520			
Cc1cc(O)c2c(c1)O[C@@]1(C(=O)NCCO)C(=CC=C[C@H]1O)C2=O	7880	23	2670	102	10600			
Cc1cc(O)c2c(c1)O[C@@]1(C(=O)N(C)C)C(=CC=C[C@H]1O)C2=O	790		150		980			

From ChEMBL document CHEMBL1131976, “Syntheses of novel antitumor dihydroxanthone derivatives with inhibitory activity against DNA topoisomerase II” (Bioorg Med Chem Lett, 1999)
